Reference: ChEMBL document CHEMBL5380791, “Modular Biomimetic Strategy Enabled Discovery of Simplified Pseudo-Natural Macrocyclic P-Glycoprotein Inhibitors Capable of Overcoming Multidrug Resistance” (J Med Chem, 2023)
One block for each compound: values may come before it. Active and inactive are the calls of the source. The rule behind the calls is not given here.

Key:
[1] = test system: KBv200; experiment: Reversal of vinorelbine resistance in human KBv200 cells assessed as reduction in cell viability incubated for 72 hrs in presence of vinorelbine (reference value: 224 to 228.30 nM); type: functional, cell-based; conditions: KBv200, 72 h
[2] = test system: KBv200; experiment: Reversal fold, ratio of vinorelbine IC50 for cytotoxicity against human KBv200 cells over test compound IC50 for reversal of vinorelbine resistance in human KBv200 cells; type: functional
[3] = test system: KBv200; experiment: Reversal of paclitaxel resistance in human KBv200 cells assessed as reduction in cell viability incubated for 72 hrs in presence of paclitaxel (reference value: 392.9+/-196.5 nM); type: functional, cell-based; conditions: KBv200, 72 h
[4] = test system: KBv200; experiment: Reversal of adriamycin resistance in human KBv200 cells assessed as reduction in cell viability incubated for 72 hrs in presence of adriamycin (reference value: 1291.2+/-308.9 nM); type: functional, cell-based; conditions: KBv200, 72 h
[5] = test system: KB; experiment: Reversal of vinorelbine resistance in human KB cells assessed as reduction in cell viability incubated for 72 hrs in presence of vinorelbine (reference value: 7.4+/-2.2 nM); type: functional, cell-based
[6] = test system: K562/Adr; experiment: Reversal of vinorelbine resistance in human K562/Adr cells assessed as reduction in cell viability incubated for 72 hrs in presence of vinorelbine (reference value: 7320.6+/-2115.2 nM); type: functional, cell-based
[7] = test system: K562; experiment: Reversal of vinorelbine resistance in human K562 cells assessed as reduction in cell viability incubated for 72 hrs in presence of vinorelbine (reference value: 5.9+/-0.2 nM); type: functional, cell-based; conditions: K562, 72 h
[8] = test system: NCI/ADR-RES; experiment: Reversal of vinorelbine resistance in human NCI/ADR-RES cells assessed as reduction in cell viability incubated for 72 hrs in presence of vinorelbine (reference value: 6125.7+/-3267.7 nM); type: functional, cell-based
[9] = test system: OVCAR-8; experiment: Reversal of vinorelbine resistance in human OVCAR-8 cells assessed as reduction in cell viability incubated for 72 hrs in presence of vinorelbine (reference value: 16.2+/-4.7 nM); type: functional, cell-based; conditions: OVCAR-8, 72 h
[10] = test system: KBv200; experiment: Antitumor activity against human KBv200 cells xenografted in Balb/cA nude mouse assessed as mean tumor volume at 8 mg/kg, iv administered as single dose and measured on day 0; type: functional
[11] = test system: KBv200; experiment: Antitumor activity against human KBv200 cells xenografted in Balb/cA nude mouse assessed as mean tumor volume at 8 mg/kg, iv q4d administered for 13 days; type: functional; conditions: time 13 day
[12] = test system: KBv200; experiment: Antitumor activity against human KBv200 cells xenografted in Balb/cA nude mouse assessed as T/C ratio at 8 mg/kg, iv q4d administered for 13 days; type: functional; conditions: time 13 day
[13] = test system: KBv200; experiment: Antitumor activity against human KBv200 cells xenografted in Balb/cA nude mouse assessed as tumor growth inhibition at 8 mg/kg, iv q4d administered for 13 days; type: functional; conditions: KBv200, 312 h, time 13 day
[14] = Toxicity in Balb/cA nude mouse xenografted with human KBv200 cells assessed as changes in body weight at 75 mg/kg, ip qd administered for 13 days in presence of vinorelbine; type: organism-based; conditions: in vivo, 312 h, time 13 day
[15] = Toxicity in Balb/cA nude mouse xenografted with human KBv200 cells assessed as mortality at 75 mg/kg, ip qd administered for 13 days in presence of vinorelbine; type: organism-based; conditions: in vivo, 312 h, time 13 day
[16] = test system: KBv200; experiment: Induction of apoptosis in human KBv200 cells assessed as increase in cleaved PARP level at 5 uM incubated for 24 hrs by Western blotting analysis; type: functional, cell-based
[17] = test system: KBv200; experiment: Induction of apoptosis in human KBv200 cells assessed as increase in cleaved caspase 3 level at 5 uM incubated for 24 hrs by Western blotting analysis; type: functional, cell-based
[18] = test system: KBv200; experiment: Induction of apoptosis in human KBv200 cells assessed as increase in cleaved caspase 9 level at 5 uM incubated for 24 hrs by Western blotting analysis; type: functional, cell-based

SMILES: CC(C)C1NC(=O)/C(c2ccccc2)=C\C=C(\c2ccccc2)CNC(=O)CCCCCCCCCCCNC1=O (stereo not drawn)
IC50 ([1]; read-out: IC50): 1.13 nM
Ratio IC50 [2]: 202

SMILES: O=C1CCCCCCCCCCCNC(=O)CNC(=O)/C(c2ccccc2)=C\C=C(\c2ccccc2)CN1
IC50 ([1]; read-out: IC50): 24.5 nM
Ratio IC50 [2]: 9

SMILES: CC(C)[C@H](NC(=O)/C(=C/C=C(/CNC(=O)CCCCCCCCCCCN)c1ccccc1)c1ccccc1)C(=O)O
IC50 ([1]; read-out: IC50): 199 nM
Ratio IC50 [2]: 1.1

SMILES: O=C1CCCCCCCCCCCNC(=O)[C@H](Cc2cn([C@@H]3O[C@H](CO)[C@H](O)[C@H](O)[C@H]3O)nn2)NC(=O)/C(c2ccccc2)=C\C=C(\c2ccccc2)CN1
IC50 ([1]; read-out: IC50): 140 nM
Ratio IC50 [2]: 1.6

SMILES: CC(C)[C@@H]1NC(=O)C(c2ccccc2)CCC(c2ccccc2)CNC(=O)CCCCCCCCCCCNC1=O (stereo partly drawn)
IC50 ([1]; read-out: IC50): 3.58 nM
Ratio IC50 [2]: 64

SMILES: O=C1CCCCCCCCCCCNC(=O)[C@@H]2CCCN2C(=O)/C(c2ccccc2)=C\C=C(\c2ccccc2)CN1
IC50 ([1]; read-out: IC50): 8.63 nM
Ratio IC50 [2]: 26

IC50 [5]: 4.4 nM
IC50 [6]: 446 nM
IC50 [7]: 4.3 nM
IC50 [9]: 8.5 nM
SMILES: COc1ccc(CCN(C)CCCC(C#N)(c2ccc(OC)c(OC)c2)C(C)C)cc1OC (stereo not drawn) [VERAPAMIL]
IC50 [1]: 6.96 nM
Ratio IC50 [2]: 33
IC50 [3]: 18.2 nM
IC50 [4]: 145 nM
IC50 [8]: 289 nM

SMILES: CCC1=C[C@@H]2CN(C1)Cc1c([nH]c3ccccc13)[C@@](C(=O)OC)(c1cc3c(cc1OC)N(C)[C@H]1[C@@](O)(C(=O)OC)[C@H](OC(C)=O)[C@]4(CC)C=CCN5CC[C@]31[C@@H]54)C2 [VINORELBINE]
Activity [10]: 122.3 mm3
Activity [11]: 1727.4 mm3
T/C [12]: 82%
inhibition in vivo at 8 mg/kg [13]: 18%
Activity [14]: Non-Toxic
Activity [15]: Non-Toxic
Activity [16]: inactive
Activity [17]: inactive
Activity [18]: inactive

SMILES: CC(C)[C@@H]1NC(=O)/C(c2ccccc2)=C\C=C(\c2ccccc2)CNC(=O)CCCCCCCCCNC1=O
IC50 ([1]; read-out: IC50): 4.57 nM
Ratio IC50 [2]: 50

SMILES: CC(C)[C@@H]1NC(=O)/C(c2ccccc2)=C/C=C(/c2ccccc2)CNC(=O)CCCCCCCNC1=O
IC50 ([1]; read-out: IC50): 46.6 nM
Ratio IC50 [2]: 5

SMILES: NCCCC[C@@H]1NC(=O)/C(c2ccccc2)=C\C=C(\c2ccccc2)CNC(=O)CCCCCCCCCCCNC1=O
IC50 ([1]; read-out: IC50): 289 nM
Ratio IC50 [2]: 0.8

SMILES: O=C1CCCCCCCCCCCNC(=O)[C@H](Cc2c[nH]c3ccccc23)NC(=O)/C(c2ccccc2)=C\C=C(\c2ccccc2)CN1
IC50 ([1]; read-out: IC50): 140 nM
Ratio IC50 [2]: 2

SMILES: CC(C)[C@@H]1NC(=O)/C(c2ccc(Br)cc2)=C\C=C(\c2ccccc2)CNC(=O)CCCCCCCCCCCNC1=O
IC50 ([1]; read-out: IC50): 0.4 nM
Ratio IC50 [2]: 570

SMILES: CC(=O)N[C@@H]1[C@@H](O)[C@H](O)[C@@H](CO)O[C@H]1n1cc(C[C@@H]2NC(=O)/C(c3ccccc3)=C\C=C(\c3ccccc3)CNC(=O)CCCCCCCCCCCNC2=O)nn1
IC50 ([1]; read-out: IC50): 152 nM
Ratio IC50 [2]: 1.5

SMILES: C#CC[C@@H]1NC(=O)/C(c2ccccc2)=C\C=C(\c2ccccc2)CNC(=O)CCCCCCCCCCCNC1=O
IC50 ([1]; read-out: IC50): 3.64 nM
Ratio IC50 [2]: 63

SMILES: NC(=O)CC[C@@H]1NC(=O)/C(c2ccccc2)=C\C=C(\c2ccccc2)CNC(=O)CCCCCCCCCCCNC1=O
IC50 ([1]; read-out: IC50): 210 nM
Ratio IC50 [2]: 1

SMILES: CSCC[C@@H]1NC(=O)/C(c2ccccc2)=C\C=C(\c2ccccc2)CNC(=O)CCCCCCCCCCCNC1=O
IC50 ([1]; read-out: IC50): 1.24 nM
Ratio IC50 [2]: 184

SMILES: CC(C)[C@@H]1NC(=O)/C(c2ccccc2)=C\C=C/CNC(=O)CCCCCCCCCCCNC1=O
IC50 ([1]; read-out: IC50): 3.76 nM
Ratio IC50 [2]: 61

SMILES: O=C1CCCCCCCCCCCNC(=O)[C@H](Cc2ccc(O)cc2)NC(=O)/C(c2ccccc2)=C\C=C(\c2ccccc2)CN1
IC50 ([1]; read-out: IC50): 1.76 nM
Ratio IC50 [2]: 130

SMILES: COc1ccc(/C2=C/C=C(/c3ccccc3)CNC(=O)CCCCCCCCCCCNC(=O)[C@H](C(C)C)NC2=O)cc1OC
IC50 ([1]; read-out: IC50): 3.65 nM
Ratio IC50 [2]: 63

SMILES: CC(C)[C@@H]1NC(=O)/C(c2ccccc2)=C\C=C(\c2ccc(F)cc2)CNC(=O)CCCCCCCCCCCNC1=O
IC50 ([1]; read-out: IC50): 0.42 nM
Ratio IC50 [2]: 543

SMILES: O=C1CCCCCCCCCCCNC(=O)[C@H](Cc2cn([C@@H]3O[C@H](CO)[C@@H](O)[C@H](O)[C@H]3O)nn2)NC(=O)/C(c2ccccc2)=C\C=C(\c2ccccc2)CN1
IC50 ([1]; read-out: IC50): 169 nM
Ratio IC50 [2]: 1.3

SMILES: CC(C)[C@H]1NC(=O)/C(c2cccc3ccccc23)=C\C=C(\c2ccccc2)CNC(=O)CCCCCCCCCCCNC1=O
IC50 ([1]; read-out: IC50): 0.21 nM
Ratio IC50 [2]: 1291

SMILES: COc1ccc(/C2=C/C=C(/c3ccccc3)C(=O)N[C@@H](C(C)C)C(=O)NCCCCCCCCCCCC(=O)NC2)cc1
IC50 ([1]; read-out: IC50): 1.54 nM
Ratio IC50 [2]: 148

SMILES: COc1ccc(/C2=C/C=C(/c3ccccc3)CNC(=O)CCCCCCCCCCCNC(=O)[C@H](C(C)C)NC2=O)cc1
IC50 ([1]; read-out: IC50): 0.44 nM
Ratio IC50 [2]: 519

SMILES: O=C1CCCCCCCCCCCNC(=O)[C@H](Cc2ccccc2)NC(=O)/C(c2ccccc2)=C\C=C(\c2ccccc2)CN1
IC50 ([1]; read-out: IC50): 0.38 nM
Ratio IC50 [2]: 601

SMILES: O=C1CCCCCCCCCCCNC(=O)[C@H](Cc2ccccc2)NC(=O)/C(c2cccc3ccccc23)=C\C=C(\c2ccccc2)CN1
IC50 ([1]; read-out: IC50): 0.05 nM
Ratio IC50 [2]: 4566

SMILES: CC(C)[C@@H]1NC(=O)/C(c2ccccc2)=C\C=C(\c2ccccc2)CNC(=O)CCOCCOCCOCCNC1=O
IC50 ([1]; read-out: IC50): 127 nM
Ratio IC50 [2]: 1.8

SMILES: CC(C)[C@@H]1NC(=O)/C(c2ccccc2)=C\C=C(\c2ccccc2)CNC(=O)CCCCCCCCCCCNC1=O
IC50 ([1]; read-out: IC50): 1.19 nM
Ratio IC50 [2]: 192

SMILES: CC(=O)N[C@@H]1[C@@H](OC(C)=O)[C@H](OC(C)=O)[C@@H](COC(C)=O)O[C@H]1n1cc(C[C@@H]2NC(=O)/C(c3ccccc3)=C\C=C(\c3ccccc3)CNC(=O)CCCCCCCCCCCNC2=O)nn1
IC50 ([1]; read-out: IC50): 248 nM
Ratio IC50 [2]: 0.9

SMILES: CC(C)C[C@@H]1NC(=O)/C(c2ccccc2)=C\C=C(\c2ccccc2)CNC(=O)CCCCCCCCCCCNC1=O
IC50 ([1]; read-out: IC50): 0.55 nM
Ratio IC50 [2]: 415

SMILES: CC(C)[C@@H]1NC(=O)/C(c2cccc3ccccc23)=C\C=C(\c2ccccc2)CNC(=O)CCCCCCCCCCCNC1=O
IC50 ([1]; read-out: IC50): 0.3 nM
Ratio IC50 [2]: 761
